Source: US20150218534A1, “MODIFIED DNA POLYMERASE” (TOYOBO CO., LTD., priority 2012, published 2015)

Tested on: bisulfite-treated human genomic DNA (MINT1, RAR, THBS1, MINT31)
Test: PCR amplification of bisulfite-treated DNA
Format: biochemical
Settings: 40 cycles (FIG. 12)
Procedure: Using bisulfite-treated DNA as a template and various primers, the difference in PCR amplification was compared. For comparison, KOD mutant (Y7A/V93K) and KOD (wild-type), each mixed with 1 μg of a KOD antibody per U of the enzyme, and Taq DNA polymerase mixed with an antibody (a mixture of equal amounts of Taq DNA polymerase (produced by Toyobo Co. Ltd.) and Anti-Taq High (produced by Toyobo Co. Ltd.)) were used.
The bisulfite-treated DNA used was human genomic DNA (produced by Roche) that had been treated with a MethylCode Bisulfite Conversion Kit of Invitrogen.
For PCR with the KOD mutant (Y7A/V93K) and PCR with the KOD, a buffer, MgSO4, and dNTPs included in KOD-Plus-Ver. 2 (produced by Toyobo Co. Ltd.) were used. 50 μl of individual reaction solutions containing 1× PCR buffer, 1.5 mM MgSO4, dNTPs (dATP, dTTP, dCTP, dGTP) in an amount of 0.2 mM, primers (SEQ ID NOs: 42 and 43 for amplification of MINT1; SEQ ID NOs: 44 and 45for amplification of RAR; SEQ ID NOs: 46 and 47 for amplification of THBS1; SEQ ID NOs: 48 and 49 for amplification of MINT31) in an amount of 15 pmol, 1 μl of bisulfite-treated DNA extract, and 1 U of each respective enzyme mixed with the antibody were used. PCR was performed using a GeneAmp PCR system 9700 (Applied Biosystems) on the following schedule: preliminary reaction at 94° C. for 2 minutes, followed by 40 cycles, each cycle consisting of 98° C. for 10 seconds, 55° C. for 15 seconds, and 68° C. for 1 minute.
For PCR with the Taq DNA polymerase, 50 μl of a reaction solution containing 1× buffer included in Blend Taq (product of Toyobo), dNTPs (dATP, […], dCTP, dGTP) in an amount of 0.2 mM, primers in an amount of 15 pmol (the same as above), 1 μl of bisulfite-treated DNA extract, and 2.5 U of the enzyme mixed with the antibody was used. […]
After the completion of each individual reaction, each of the resulting reaction solutions was analyzed using a DNA-1000 kit for MultiNA (produced by Shimadzu Corporation) to confirm amplified DNA fragments.

KOD Y7A/V93K: modified KOD DNA polymerase with Y7A and V93K
amplification of bisulfite-treated DNA: stable amplification was confirmed
